Laboratory results taken from US12533428B2, “Multimodal fluorine-CY3/5/7-DOTA-hapten compositions, diagnostics, fluorescence guided surgery and radioimmunotherapy” (Memorial Sloan Kettering Cancer Center, priority 2019, dated 2026).
Values belong to the compound of their own block, whether it stands above or below them.

What was measured:
[1] = tested on: IMR32luc cells; test: Cell binding with BsAb, fluorescent microscopy; type: cell-based; conditions: IMR32luc cells incubated with anti-GD2/anti-DOTA BsAb
Protocol: The cell binding of Compound 6 and [^175Lu]-Compound 6 variants was then studied using fluorescent microscopy. IMR32luc cells were incubated with Anti-GD2/Anti-DOTA BsAb, a control anti-DOTA BsAb or no BsAb, followed by incubation with Compound 6 or [^175Lu]-Compound 6 variants. […] Binding was not detected when a control anti-DOTA BsAb was added (FIG. 14) or no BsAb was added (FIG. 15).

[2] = tested on: GD2-expressing IMR32Luc neuroblastoma cells; test: Cell binding with anti-tumor/anti-DOTA BsAb, FACS; type: cell-based
Protocol: The cell binding activity of [F]Cy3D (Compound 6) was assayed with an anti-tumor/anti-DOTA bispecific antibody (BsAb). To detect binding of Compound 6 to GD2-expressing IMR32Luc neuroblastoma cells using an anti-GD2/anti-DOTA BsAb or a control BsAb (anti-HER2/anti-DOTA), cells were incubated with 1 μg of BsAb or PBS, washed and then incubated with several versions of Compound 6: (1) Compound 6, (2) [^175Lu]Pre-Compound 6 where ^175Lu was added before a mock ^19F isotope exchange, (3) [^19F]Pre-[^175Lu]Compound 6, where a mock ^19F isotope exchange was done before ^175Lu was added, and (4) [^175Lu]-Compound 6 where ^175Lu was directly added to Compound 6 without isotope exchange. Cells were analyzed by FACS or fluorescent microscopy.

[3] = tested on: GPA33-expressing human colorectal cancer SW1222 subcutaneous xenograft; test: PET/CT imaging of pretargeted [^18F]CyD; type: in vivo, Athymic nude mice; conditions: approximately 1 h after i.v. injection (1.295 MBq, 0.23 nmol), pretargeted tumor-bearing mice
Protocol: (§1) In vivo pretargeting of [^18F]CyD for PET imaging of human colorectal cancer xenograft (SW1222 human carcinoma cell line). Athymic nude mice bearing the GPA33-expressing human colorectal cancer SW1222 subcutaneous xenograft were used as a model for anti-GPA33 DOTA-PRIT. The groups were intravenously (i.v.) injected with BsAb huA33-C825 (250 μg, 1.19 nmol), followed 24 h later with i.v. injection of dendron CA ([…], 2.76 nmol; (glycodendrimer-based CA α-thio-N-acetylgalactosamine-16-DOTA-Y^3; see WO2020014386)) and after an additional 4 h, i.v. injection of [^18F]CyD (1.295 MBq (35 μCi), 0.23 nmol). Non-invasive PET/CT imaging was performed using a preclinical Inveon PET/CT system at ˜1 h post-injection (p.i.) of [^18F]CyD (see FIG. 23), followed with ex vivo biodistribution assay of radioactivity.

[4] = tested on: GPA33-expressing human colorectal cancer SW1222 subcutaneous xenograft; test: Ex vivo biodistribution of anti-GPA33 pretargeted [^18F]CyD; type: in vivo, Athymic nude mice; conditions: 2 h p.i.
Protocol: as §1

[5] = tested on: GPA33-expressing SW1222 colon cancer cells; test: Binding with anti-GPA33/anti-DOTA BsAb, FACS flow cytometry (MFI); type: cell-based, human
Protocol: Next [^175Lu]-Compound 6 binding to GPA33-expressing SW1222 colon cancer cells was investigated. SW1222 cells were incubated with 25, 2.5 or 0.25 pmol of anti-GPA33/Anti-DOTA BsAb, or a control (anti-GD2/anti-DOTA) BsAb, washed and mixed with 50, 5 or 0.5 pmol of [^175Lu]-Compound 6.

[6] = tested on: subcutaneous GD2-expressing tumor (IMR32Luc); test: ^18F-PET imaging of GD2-positive subcutaneous tumor; type: in vivo; conditions: IMR32Luc tumor mouse, anti-GD2/anti-DOTA BsAb 24 h and clearing agent 4 h before PET; image after 2 hours
Protocol: A pilot PET study using ([^175Lu][^18F]-Compound 6) was carried out. For that purpose, a mouse bearing a subcutaneous GD2-expressing tumor (IMR32Luc) was pretreated (24 hours pre PET) with an anti-GD2/anti-DOTA BsAb and followed with DOTA-dendrimer clearing agent (glycodendrimer-based CA α-thio-N-acetylgalactosamine-16-DOTA-Y^3; see WO2020014386) (4 hours before PET) and [^175Lu][^18F]-Compound 6. After 2 hours the image was collected by a PET scan. […] Moreover, the small size of [^175Lu][^18F]-Compound 6 reduced background activity dramatically in a short amount of time.

Structure (SMILES): CC1(C)C(/C=C/C=C2/N(CCCCCC(=O)Nc3ccc(CC4CN(CC(=O)O)CCN(CC(=O)O)CCN(CC(=O)O)CCN4CC(=O)O)cc3)c3ccc(S(=O)(=O)[O-])cc3C2(C)C)=[N+](CCCCCC(=O)NCC[N+](C)(C)C[B-](F)(F)F)c2ccc(S(=O)(=O)O)cc21 (centres unmarked) [Compound 6, [F]Cy3D]
Binding to cells (fluorescent microscopy) [1]: did not show binding
Binding to cells (fluorescence, FACS) ([2]; IMR32Luc cells incubated with 1 μg anti-GD2/anti-DOTA BsAb): shows no fluorescence
Binding to cells (fluorescence, FACS) ([2]; IMR32Luc cells, negative controls: no BsAb or control BsAb (anti-HER2/anti-DOTA)): no binding

Bone uptake ([4]; SW1222-tumor bearing mice): 1.65±0.48 % ID/g
Large intestine uptake ([4]; SW1222-tumor bearing mice): 8.41±2.62 % ID/g
Blood uptake ([4]; n=3, SW1222-tumor bearing mice): 0.17±0.12 % ID/g
Kidney uptake ([4]; n=3, SW1222-tumor bearing mice): 0.87±0.11 % ID/g
Tumor Uptake ([4]; n=3, SW1222-tumor bearing mice): 5.14±1.24 % ID/g
T:NT for blood ([4]; tumor to blood): 31±13
T:NT for kidney ([4]; tumor to kidney): 6±1
Structure (SMILES): CC1(C)C(=C/C=C/C2=[N+](CCCCCC(=O)NCC[N+](C)(C)C[B-](F)(F)[18F])c3ccc(S(=O)(=O)[O-])cc3C2(C)C)N(CCCCCC(=O)Nc2ccc(CC3CN(CC(=O)[O-])CCN(CC(=O)[O-])CCN(CC(=O)[O-])CCN3CC(=O)[O-])cc2)c2ccc(S(=O)(=O)[O-])cc21.[175Lu+3] (centres unmarked) [[^18F]CyD]
Activity in the tumor by PET/CT [3]: high activity is present in the tumor

Structure (SMILES): CC1(C)C(=CC=CC2=[N+](CCCCCC(=O)NCC[N+](C)(C)C[B-](F)(F)F)c3ccc(S(=O)(=O)[O-])cc3C2(C)C)N(CCCCCC(=O)Nc2ccc(CC3CN(CC(=O)[O-])CCN(CC(=O)[O-])CCN(CC(=O)[O-])CCN3CC(=O)[O-])cc2)c2ccc(S(=O)(=O)[O-])cc21.[175Lu+3] (centres unmarked) [[^175Lu]-Compound 6, [F]Cy3D[^175Lu]]
Mean fluorescence (MFI) of binding ([5]; SW1222 cells, 25, 2.5 or 0.25 pmol anti-GPA33/anti-DOTA BsAb, 50, 5 or 0.5 pmol probe): proportionate to the amount
Binding to cells (FACS) ([5]; SW1222 cells, control anti-GD2/anti-DOTA BsAb): no binding

Structure (SMILES): CC1(C)C(=CC=CC2=[N+](CCCCCC(=O)NCC[N+](C)(C)C[B-](F)(F)[18F])c3ccc(S(=O)(=O)[O-])cc3C2(C)C)N(CCCCCC(=O)Nc2ccc(CC3CN(CC(=O)[O-])CCN(CC(=O)[O-])CCN(CC(=O)[O-])CCN3CC(=O)[O-])cc2)c2ccc(S(=O)(=O)[O-])cc21.[175Lu+3] (centres unmarked) [[^175Lu][^18F]-Compound 6, [^18F]Cy3D[^175Lu]]
Tumor targeting by PET scan [6]: specifically targeted to the BsAb-treated tumor
